Source: patent publication US11135203B2, “Forazolines, compositions thereof and uses thereof” (Wisconsin Alumni Research Foundation, priority 2013, dated 2021)

Tests used:
[1] = test system: Candida albicans K1; assay: Neutropenic murine disseminated candidiasis model, kidney organism burden; format: in vivo; settings: Candida albicans K1, single dose 2.5, 0.78 and 0.125 mg/kg, after 8 hours
Excerpt: (§1) Animals. Six-week-old ICR Swiss specific-pathogen-free female mice weighing 23 to 27 g were used for all studies. Animals were maintained in accordance with the American Association for Accreditation of Laboratory Care criteria. Animal studies were approved by the University of Wisconsin Animal Care Committee.
Infection model. A neutropenic, murine, disseminated candidiasis model was used for the treatment studies. Mice were rendered neutropenic (polymorphonuclear cell counts of <100 mm^3) by injecting cyclophosphamide subcutaneously 4 days before infection (150 mg/kg of body weight) and 1 day before infection (100 mg/kg). Candida albicans K1 was subcultured on Sabouraud dextrose agar (SDA) 24 h prior to infection. The inocula were prepared by placing three to five colonies into 5 ml of sterile 0.15 M NaCl warmed to 35° C. The final inoculum was adjusted to 0.6 transmittance at 530 nm. Fungal counts of the inocula determined by viable counts on SDA were 5.63±0.38 log10 CFU/mL (mean±standard deviation).
Disseminated infection with C. albicans organisms was produced by injection of 0.1 ml of the inoculum via the lateral tail vein 2 h prior to the start of antifungal therapy. At the end of the study period (8 h), animals were sacrificed by CO2 asphyxiation. […] The results are expressed as the mean and standard deviation of the log10 CFU/kidney from three mice. […]

[2] = Toxic effects observed in treated mice of the candidiasis model; format: in vivo; settings: neutropenic mice, 2.5, 0.78 and 0.125 mg/kg, 8 hours
Description: as §1
Drug Treatment. […] The intravenous dose was given by the lateral tail vein via a 200 μL infusion. The intraperitoneal dose was administered in 500 μL volume. Control mice were treated with saline. Groups of mice were sacrificed at the start of therapy and 8 hours after therapy for determination of organism burden in the kidney as described above.

[3] = Water solubility; format: physicochemical
[4] = Synergy studies with amphotericin B (AMB); format: cell-based; settings: combination with amphotericin B
[5] = test system: Saccharomyces cerevisiae deletion mutant strains; assay: Chemical genomic profiling against deletion mutant yeast strains; format: cell-based; settings: for sensitivity of mutant LEM3-Δ: chemical genomic profile of known antifungal agents
Description: This method has been used to explore the mechanism of action for bioactive compounds, including natural products. Forazoline A was screened against over four thousand deletion mutant yeast strains, genomic DNA was extracted, and mutant-specific DNA barcodes were amplified and sequenced by Illumina sequencing. Forazoline A sensitive and resistant mutants were determined by quantification of DNA-barcodes, which provided a chemical genomic profile used to evaluate the mechanism of action.

## CO[C@H]1[S+]([O-])C2=CC(=O)[C@](C)(O[C@H]3CC[C@H](N(C)C)[C@@H](C)O3)[C@@H](O)CCC(C)=C[C@@H]3[C@@H](C)[C@](C)(Cl)[C@@H](C[C@H]3O[C@H]3CC[C@H](N(C)C)[C@@H](C)O3)OC(=O)[C@@H]3CSC(=N3)[C@]1(C)N2 (some centres unmarked) [Forazoline A]
[1]
  reduction in organism burden compared to control mice: 1.5+/−0.12 log10 cfu/kidney
[2]
  toxic effects from the compound: No toxic effects
[3]
  water solubility: about 5 mg/mL
[4]
  interaction when tested with AMB: synergy
[5]; GO: 0045332, P=0.0009, driven by LEM3 and FPK1 deletion mutants
  gene enrichment of top sensitive mutant strains (P<0.0001): significantly enriched for genes involved in phospholipid translocation

## C[C@@H]1[C@H](O)[C@@H](C)/C=C/C=C/C=C/C=C/C=C/C=C/C=C/[C@H](O[C@@H]2O[C@H](C)[C@@H](O)[C@H](N)[C@@H]2O)C[C@@H]2O[C@](O)(C[C@@H](O)C[C@@H](O)[C@H](O)CC[C@@H](O)C[C@@H](O)CC(=O)O[C@H]1C)C[C@H](O)[C@H]2C(=O)O [amphotericin, amphotericin B]
[5]
  sensitivity of mutant LEM3-Δ: not among the most sensitive strains

## CC[C@H](C)C[C@H](C)CCCCCCCCC(=O)N[C@H]1C[C@@H](O)[C@@H](NCCN)NC(=O)[C@@H]2[C@@H](O)CCN2C(=O)[C@H]([C@H](O)CCN)NC(=O)[C@H]([C@H](O)[C@@H](O)c2ccc(O)cc2)NC(=O)[C@@H]2C[C@@H](O)CN2C(=O)[C@H]([C@@H](C)O)NC1=O [caspofungin]
[5]
  sensitivity of mutant LEM3-Δ: not among the most sensitive strains

## OC(Cn1cncn1)(Cn1cncn1)c1ccc(F)cc1F [fluconazole]
[5]
  sensitivity of mutant LEM3-Δ: not among the most sensitive strains
